Publication PMC8958505, “Discovery of Potential Neuroprotective Agents against Paclitaxel-Induced Peripheral Neuropathy” (Journal of Medicinal Chemistry, 2022)

Tests used:
[1] = system: primary cortical neurons; experiment: Neurite outgrowth assay of primary cortical neurons (image-based HCS) against paclitaxel-induced neurotoxicity; format: cell-based, mouse; details: for activity at 0.01 µM / activity at 1 µM: Mus musculus, Primary cortical neuron; for activity at 0.01 µM: read-out: C: Neurite outgrowth (% of control) of test compound (10 nM) + paclitaxel (1 μM); for activity at 1 µM: read-out: D: Neurite outgrowth (% of control) of test compound (1000 nM) + paclitaxel (1 μM); for protective effect in the neurite outgrowth assay (in words): test compound 10 and 1000 nM prior to paclitaxel 1 μM, Figure 1A
Source text: (§1) Herein, we wish to report that an in vitro neurite outgrowth assay of cortical neurons integrated with an image-based high-content screening (HCS) platform is used to evaluate a commercially available library of 78 minoxidil-related derivatives,[22] leading to the identification of a series of analogues able to prevent or alleviate paclitaxel-induced neurotoxicity. The project began with screening compounds with the primary culture of cortical neurons from neonatal mice. More specifically, cerebral cortex neurons cultured from P0 C57BL/6J mouse pups were incubated with a test compound (10 and 1000 nM) prior to paclitaxel (1 μM) treatment. Subsequently, both neurite outgrowth and synaptogenesis were measured to evaluate the test compounds’ neuroprotective capacity. […] This unique feature is preserved for the core-structure screening of our in-house library in the following subject. Moreover, the substituent at the C4 position appears flexible in terms of structural diversity. Collectively, CSV0A024807, the only one displaying the best neuroprotective potency on both neurite outgrowth and synaptogenesis assays, was thus elected as a potential hit compound for further development.
(§2) Primary cortical or DRG cells were fixed with 4% paraformaldehyde for 15 min following compound and paclitaxel treatment. After washing with PBS, the fixed cells were permeabilized with PBS containing 0.05% Triton X-100 for 20 min and then blocked with commercial blocking buffer (#GTX30963; GeneTex, USA) at room temperature for 1 h. Subsequently, the cortical cells were stained for the extending processes and synaptic puncta by using anti-MAP2 (#MBS502140, 1:500; Mybiosource, USA) and anti-synaptophysin (#ab32127, 1:500; Abcam, UK) overnight. DRG cells were stained for the neurite and neuron nucleus by using anti-β III tubulin (#D71G9, 1:600; Cell Signaling, USA) and anti-NeuN monoclonal antibody (#MAB377, 1:400; Millipore, USA) overnight. On the second day, the samples were washed for 30 min with wash buffer and incubated with secondary antibodies (Alexa-488, 647 1:600; Thermo Fisher, USA) and 4 μg/mL Hoechst 33258 (#94403-1ML, 1:100; Merck, USA) at room temperature for 1 h. In the initial experiments of screening the potential neuroprotective compound for CIPN, ImageXpress^Micro (IXM) high-content imaging system (Molecular Devices, USA) driven by MetaXpress software was used. Images of treated cells were automatically acquired by using a 10× objective. Twenty-one images per well were taken in each of three channels (DAPI, FITC, and Cy5) to create a whole view of the entire neural network. The integrity of the neural network was evaluated using TIF images by importing them into MetaXpress software for analysis using the module for multiparameter, such as Neurite Outgrowth, Cell Scoring, and Transfluor. Furthermore, the score of synaptogenesis was analyzed in AcuityXpress software (Molecular Devices, USA).

[2] = system: primary cortical neurons; experiment: Synaptogenesis assay of primary cortical neurons (image-based HCS) against paclitaxel-induced neurotoxicity; format: cell-based, mouse; details: for activity at 0.01 µM / activity at 1 µM: Mus musculus, Primary cortical neuron; for activity at 0.01 µM: read-out: A: Synaptogenesis (% of control) of test compound (10 nM) + paclitaxel (1 μM); for activity at 1 µM: read-out: B: Synaptogenesis (% of control) of test compound (1000 nM) + paclitaxel (1 μM); for attenuation of synaptogenesis inhibited by paclitaxel (in words): test compound 10 and 1000 nM prior to paclitaxel 1 μM, Figure 1A
Source text: as §1, §2

[3] = test compound 10 nM + paclitaxel 1 μM, mean ± SE
[4] = test compound 1000 nM + paclitaxel 1 μM, mean ± SE

Row | SMILES | activity at 0.01 µM [1, 3] | activity at 1 µM [1, 4] | protective effect in the neurite outgrowth assay (in words) [1] | activity at 0.01 µM [2, 3] | activity at 1 µM [2, 4] | activity at 0.01 µM [1] | activity at 1 µM [1] | activity at 0.01 µM [2] | activity at 1 µM [2] | rescue of neuronal damage caused by paclitaxel (immunofluorescence images) ([1]; pretreated, primary cortical neuron culture, Figure 1B) | attenuation of synaptogenesis inhibited by paclitaxel (in words) [2]
1 | O=C(NNc1cc(N2CCOCC2)nc(N2CCOCC2)n1)c1ccccc1 [CSV0A051549] | 71 ± 1% | 68 ± 1% | significant protective effect | 86 ± 6% | 77 ± 7% | – | – | – | – | – | –
2 | C(=N\Nc1cc(N2CCOCC2)nc(N2CCOCC2)n1)/c1ccncc1 [CSV0A024809] | 77 ± 2% | 82 ± 3% | – | 38 ± 3% | 27 ± 0.5% | – | – | – | – | – | –
3 | COc1cc(/C=N/Nc2cc(N(C)C)nc(N(C)C)n2)ccc1O [CSV0A055768] | – | – | – | – | – | 71 ± 2% | 74 ± 6% | 35 ± 4% | 33 ± 0.2% | – | –
4 | CN(C)c1ccc(/C=N/Nc2cc(N3CCCC3)nc(N3CCCC3)n2)cc1 [CSV0A027460] | 77 ± 1% | 63 ± 3% | – | 47 ± 1% | 33 ± 3% | – | – | – | – | – | –
5 | O=[N+]([O-])c1cccc(/C=N/Nc2cc(N3CCOCC3)nc(N3CCOCC3)n2)c1 [CSV0A024807] | 69 ± 3% | 60 ± 1% | significant protective effect | 92 ± 2% | 97 ± 2% | – | – | – | – | significantly rescued | significantly attenuated
6 | CCCN(CCC)c1cc(N/N=C/c2ccc(Cl)cc2)nc(N(CCC)CCC)n1 [CSV0A061665] | 37 ± 7% | 27 ± 3% | – | 27 ± 3% | 27 ± 5% | – | – | – | – | – | –
7 | CCN(CC)c1cc(NNC(=O)c2ccccc2OC)nc(N(CC)CC)n1 [CSV0A008237] | 56 ± 1% | 50 ± 9% | – | 45 ± 4% | 45 ± 8% | – | – | – | – | – | –
8 | Oc1ccc(/C=N/Nc2cc(N3CCOCC3)nc(N3CCOCC3)n2)cc1 [CSV0A013029] | 58 ± 2% | 54 ± 5% | – | 72 ± 2% | 84 ± 6% | – | – | – | – | – | significantly attenuated
9 | COc1ccccc1/C=N/Nc1cc(N2CCOCC2)nc(N2CCOCC2)n1 [CSV0A013031] | 74 ± 3% | 67 ± 6% | – | 57 ± 1% | 33 ± 3% | – | – | – | – | – | –
10 | O=[N+]([O-])c1ccc(/C=N/Nc2cc(N3CCCC3)nc(N3CCCC3)n2)cc1 [CSV0A024812] | 53 ± 3% | 60 ± 1% | – | 55 ± 6% | 62 ± 3% | – | – | – | – | – | –
11 | CCN(CC)c1cc(N/N=C/c2ccc(O)c(OC)c2)nc(N(CC)CC)n1 [CSV0B009489] | 39 ± 4% | 41 ± 3% | – | 34 ± 3% | 36 ± 3% | – | – | – | – | – | –
12 | CC(C)(C)c1ccc(C(=O)NNc2cc(N3CCOCC3)nc(N3CCOCC3)n2)cc1 [CSV0B026196] | 83 ± 5% | 65 ± 4% | – | 36 ± 2% | 32 ± 1% | – | – | – | – | – | –
13 | CN(C)c1ccc(/C=N/Nc2cc(N3CCOCC3)nc(N3CCOCC3)n2)cc1 [CSV0A041617] | 93 ± 5% | 94 ± 1% | – | 30 ± 1% | 30 ± 1% | – | – | – | – | – | –
14 | Clc1ccc(/C=N/Nc2cc(N3CCCCCC3)nc(N3CCCCCC3)n2)cc1 [CSV0A027457] | 62 ± 4% | 51 ± 4% | – | 51 ± 4% | 39 ± 4% | – | – | – | – | – | –
15 | Oc1ccccc1/C=N/Nc1cc(N2CCCCC2)nc(N2CCCCC2)n1 [CSV0B023377] | 57 ± 2% | 57 ± 4% | – | 42 ± 1% | 42 ± 3% | – | – | – | – | – | –
16 | O=C(CCc1ccccc1)NNc1cc(N2CCOCC2)nc(N2CCOCC2)n1 [CSV0C009114] | – | – | – | – | – | 70 ± 7% | 65 ± 3% | 48 ± 5% | 49 ± 3% | – | –
17 | CCN(CC)c1cc(NNC(=O)c2ccc(C(C)(C)C)cc2)nc(N(CC)CC)n1 [CSV0B008884] | 41 ± 3% | 41 ± 4% | – | 35 ± 3% | 37 ± 3% | – | – | – | – | – | –
18 | Oc1ccc(Br)cc1/C=N/Nc1cc(N2CCOCC2)nc(N2CCOCC2)n1 [CSV0A013030] | 76 ± 5% | 89 ± 11% | – | 26 ± 2% | 26 ± 3% | – | – | – | – | – | –
19 | CCN(CC)c1cc(N/N=C/c2ccc(Cl)cc2)nc(N(CC)CC)n1 [CSV0A020149] | 52 ± 2% | 48 ± 3% | – | 43 ± 1% | 36 ± 1% | – | – | – | – | – | –
20 | COc1cc(/C=N/Nc2cc(N3CCCC3)nc(N3CCCC3)n2)ccc1O [CSV0B016174] | 86 ± 3% | 76 ± 4% | – | 43 ± 3% | 36 ± 4% | – | – | – | – | – | –
21 | CCN(CC)c1cc(N/N=C/c2ccccc2OC)nc(N(CC)CC)n1 [CSV0A007655] | 45 ± 7% | 51 ± 3% | – | 39 ± 4% | 41 ± 2% | – | – | – | – | – | –
22 | CCCN(CCC)c1cc(N/N=C/c2cc(Br)ccc2O)nc(N(CCC)CCC)n1 [CSV0A020330] | 27 ± 2% | 45 ± 3% | – | 22 ± 3% | 45 ± 7% | – | – | – | – | – | –
23 | COc1ccccc1/C=N/Nc1cc(N2CCCC2)nc(N2CCCC2)n1 [CSV0A055771] | 68 ± 6% | 68 ± 3% | – | 36 ± 2% | 40 ± 8% | – | – | – | – | – | –
24 | CN(C)c1cc(N/N=C/c2cc3c(c([N+](=O)[O-])c2)OCO3)nc(N(C)C)n1 [CSV0A047583] | 63 ± 3% | 61 ± 3% | – | 66 ± 4% | 69 ± 5% | – | – | – | – | – | –
25 | COc1cc(/C=N/Nc2cc(N3CCCCC3)nc(N3CCCCC3)n2)ccc1O [CSV0B006088] | 59 ± 5% | 66 ± 7% | – | 45 ± 6% | 52 ± 10% | – | – | – | – | – | –
26 | CC(C)(C)c1ccc(C(=O)NNc2cc(N3CCCC3)nc(N3CCCC3)n2)cc1 [CSV0A062713] | 85 ± 8% | 74 ± 5% | – | 33 ± 1% | 36 ± 2% | – | – | – | – | – | –
